The values below come from patent publication US8410078B2, “Composition and methods to treat cardiac diseases” (University of Connecticut, priority 2006, dated 2013).

One experiment has as its system cardiac P2X receptor. The experiment in a line: Whole-cell voltage clamp of P2 agonist-induced current in WT ventricular myocytes. The experiment is classed as cell-based, mouse. The text has this:
Mice displaying the CSQ model of severe cardiomyopathy and heart failure were bred and maintained by methods known in the art. The CSQ transgenic (TG) mice were originally provided by Dr. Larry Jones (Krannert Institute of Cardiology, Indiana University School of Medicine, Indiana), and developed hypertrophy followed by a lethal heart failure phenotype with death near the age of 3 months. Ventricular myocytes were obtained from 3-month old wild type (WT) and CSQ mice of either sex (26 WT, 47 TG) by an enzymatic dissociation procedure. Briefly, the hearts were rapidly excised from mice that had been anesthetized with pentobarbital and treated with 1000 Units of heparin. The aorta was cannulated and the heart perfused in a Langendorff apparatus with oxygenated (95% O2/5% CO2) Ca^2+-free solution (37° C.) for 5 minutes at a rate of 2.5 ml/min. The solution composition was: 126 mM NaCl, 4.4 mM KCl, 1.0 mM MgCl2, 18 mM NaHCO3, 11 mM Glucose, 4 mM HEPES, and 3 mM BDM (2,3-butanedione monoxime), (pH 7.3 adjusted with NaOH). Thereafter, the perfusing solution was changed to that containing 25 μM CaCl2 and liberase (70 μg/ml, Roche Molecular Biochemicals, Inc.) for 8-10 minutes. Cells were sedimented by gravity for 10-15 minutes and the pellet was resuspended in 200 μM Ca^2+-containing Tyrode's solution (containing 3 mM BDM), allowed to settle for 30 minutes at room temperature, and suspended with Tyrode's solution containing: 135 mM NaCl, 5.4 mM KCl, 1.0 mM CaCl2, 1.0 mM MgCl2, 10 mM HEPES and 10 mM dextrose (pH 7.4 adjusted with NaOH). The experiments were carried out at room temperature (22-23° C.) and were completed within 4-6 hours after myocyte isolation.
The whole cell patch-clamp technique was used for these experiments. Electrodes were prepared from borosilicate glass pipettes (1.2 mm i.d.) with a two step pulling procedure and filled with pipette solution. The pipette was connected via an Ag—AgCl wire to the head stage of an amplifier (List EPC-7, Medical Systems, Greenvale, N.Y.) controlled by a computer and Axon pClamp™ software. For voltage clamp experiments, the electrodes were filled with a solution containing: 135 mM cesium aspartate, 5 mM NaCl, 5 mM Mg2ATP, 10 mM HEPES, and 10 mM EGTA (pH 7.3 adjusted with CsOH) with or without 2 mM GDPβS. Electrode resistances were 2-4 MΩ. As soon as electrical contact was established, the superfusion medium was changed to a modified Tyrode's solution (5.4 mM KCl was omitted and 10 mM CsCl and 5 μM ouabain were added to Tyrode's solution to block K^+ currents and the Na/K pump current, respectively). In quantifying the P2 agonist-induced current, the Tyrode's solution contained the indicated concentration of each agent. In studying the effect of a P2 receptor antagonist, both agonist and antagonist were co-applied at the indicated concentrations. The voltage clamp protocol used was a ramp voltage protocol from −100 mV holding potential to +50 mV. The ramp protocol was applied to cells at 20 s intervals for 1 minute. Three current traces from −100 mV to 50 mV were averaged to construct the I-V relationship.

A further experiment relates to intact WT mouse hearts. The experiment in a line: Cardiac function in intact WT mouse heart preparation. The method, then:
Following injection of heparin via tail vein (500 U/kg, iv) and anesthetization with nembutal (125 mg/kg for rats and 150 mg/kg for mice, ip) intraperitoneally, heart with all major vessels and lungs attached were excised. The aorta was then cannulated with a 20-gauge catheter, positioned about 2 mm above the coronary ostia. For the Langendorff method, a water-filled latex balloon (size #3) was inserted into the lumen of the left ventricle via the left atrium. The distal end of the balloon attached catheter was connected to a pressure transducer for measurement of intraventricular pressure and ±dP/dt. The balloon was inflated to a constantly held diastolic pressure of 5-7 mmHg. […]
For the working heart model, a column of KHS buffer produced a constant hydrostatic pressure of 65 mmHg (for rat) or 55 mmHg (for mice). […] Aortic flow was the amount of perfusate exiting the aortic cannula measured in […]. […]
The pressure recordings were channeled from amplifiers which had been pre-calibrated by a transducer simulator/calibrator (Ken Scientific Corp., Litchfield, Conn.). […] Data were analyzed by computer software (WorkBench for Windows+, Kent Scientific Corp) designed for an IBM-compatible computer (Dell). […] Data obtained with and without drug were analyzed by paired t test for possible statistically significant differences. […]

As for `Nc1nc(Cl)nc2c1ncn2C1[C@H]2C[C@@]2(COP(=O)(O)O)[C@@H](O)[C@H]1O` (stereo partly drawn) [MRS2339, (1′S,2′R,3′S,4′R,5′S)-4-(6-amino-2-chloro-9H-purin-9-yl)-1-[phosphoryloxymethyl]bicyclo[3.1.0]hexane-2,3-diol], the “Effect of GDPβS on MRS2339-evoked current density” value with cardiac P2X receptor (at +50 mV) is “no difference”. Besides, in the experiment on cardiac P2X receptor (at −100 mV), the “MRS2339-evoked current density in the absence of GDPβS” value was −0.73±0.15 pA/pF and the “MRS2339-evoked current density with GDPβS” value is given as −0.66±0.10 pA/pF. Also, the “+dP/dt” value with intact WT mouse hearts was “increased”.
